Experiments:
recombinant LmNADK1 = molecular target: T1, recombinant LmNADK1 (Listeria monocytogenes serovar 1/2a, UniProt Q8Y8D7); test: LmNADK1 inhibition, coupling assay (Ki measurements); format: biochemical; details: for Ki: competitive inhibition fit, 30 °C, pH 7.0, inhibitor 0, 10, 25 or 50 µM, 0-2 mM NAD, 0.1 µM LmNADK1; for inhibitory potency compared to inhibitor 1 (NKI1): result in words
T1 construct: made in house
T1 sequence (Q8Y8D7 1-264): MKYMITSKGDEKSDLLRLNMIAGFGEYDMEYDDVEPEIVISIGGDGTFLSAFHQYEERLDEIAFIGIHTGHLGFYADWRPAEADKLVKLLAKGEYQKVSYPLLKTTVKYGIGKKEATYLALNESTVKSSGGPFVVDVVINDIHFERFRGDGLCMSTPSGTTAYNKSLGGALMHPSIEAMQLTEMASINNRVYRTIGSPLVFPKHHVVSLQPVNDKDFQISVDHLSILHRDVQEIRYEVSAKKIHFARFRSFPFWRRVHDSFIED
Protocol: Another important parameter to select the chemical probe is that it retains its binding properties. The potency of ligands 2–5 as inhibitors of recombinant LmNADK1 in vitro were determined using the coupling assay described previously.
Activity was measured at 30 °C in 50 mM Bis-Tris pH 7.0, 2 mM sodium citrate, 1 mM MgCl2. Reaction mixtures contained 0–2 mM NAD, 4 mM MgATP, 5 mM Glucose 6-phosphate, 1 U/mL Glucose 6-phosphate dehydrogenase and 0.1 µM LmNADK1. Steady state rate constants (kss) were calculated by fitting the initial (first 500–1000 s) linear part of the NADP production time courses per NADK. Inhibitors were tested at 4 concentrations: 0, 10, 25 or 50 µM and Ki values were determined using the competitive inhibition equation, kss = kcat × NAD/(KM × (1 + [inhibitor]/Ki) + NAD), with GraFit software (v 7.0.3).
Figure 5 Determination of inhibition constants of compounds 1–5. Inhibitor concentrations were 0 (circles), 10 (triangles), 25 (squares) and 50 (stars) µM. Secondary plots (kss as a function of initial NAD concentration) were fitted assuming a competitive inhibition using GraFit software (v 7.0.3) and are presented here as double reciprocal plots. […] TEXT PRINTED IN THE PICTURE: NKI1: Ki (μM): 17.2 | 2: Ki (μM): 347 | 3: Ki (μM): 52.2 | 4: Ki (μM): 23.8 | 5: Ki (μM): 5.6

crystallized LmNADK1 = molecular target: T2, crystallized LmNADK1 (Listeria monocytogenes serovar 1/2a, UniProt Q8Y8D7); test: X-ray crystallography of soaked LmNADK1 crystals; format: binding; details: soaking procedure; structures refined to 2.2-2.4 Å
T2 construct: made in house
T2 sequence (Q8Y8D7 1-264): T1 sequence (Q8Y8D7 1-264)
Protocol: A prerequisite to use a chemical probe is that it retains its binding affinity for its target. The binding properties of the four synthesized derivatives 2–5 were analyzed by X-ray crystallography. We checked the binding properties of these new di-adenosine derivatives by determining their complex with crystallized LmNADK1. The soaking procedure described previously for inhibitor 1 [18] was used to obtain crystals of the target in complex with compounds 2-5. The X-ray structures were solved by molecular replacement using PDB6RGC [18] as a starting template and refined to 2.2–2.4 Å resolution.

S. aureus = system: S. aureus; set-up: method as in PMID 32017533; details: including antibiotic-resistant strains; cited from earlier work

Row | Structure (SMILES) | Ki (recombinant LmNADK1) | inhibitory potency compared to inhibitor 1 (NKI1) (recombinant LmNADK1) | complex formation / binding mode with crystallized LmNADK1 (crystallized LmNADK1) | activity in mice infected with S. aureus (S. aureus)
1 | NCCNc1ncnc2c1ncn2C1OC(COCC#Cc2nc3c(N)ncnc3n2C2OC(CO)C(O)C2O)C(O)C1O (centres unmarked) [Compound 2, 8-[3-(N^6-2-Aminoethyl-5’-O-adenosinyl)propargyl]adenosine] | 347 µM | sharp decrease in inhibitory potency | led to a complex with the target | 
2 | NCCCCNc1ncnc2c1ncn2C1OC(COCC#Cc2nc3c(N)ncnc3n2C2OC(CO)C(O)C2O)C(O)C1O (centres unmarked) [Compound 3, 8-[3-(N^6-4-Aminobutyl-5’-O-adenosinyl)propargyl]adenosine] | 52.2 µM | sharp decrease in inhibitory potency | failed to yield complex | 
3 | NCCCC(=O)NCC1OC(n2c(C#CCOCC3OC(n4cnc5c(N)ncnc54)C(O)C3O)nc3c(N)ncnc32)C(O)C1O (centres unmarked) [Compound 4, 5’-O-[3-(5’-(4-Aminobutylamido)-5’-deoxy-adenosin-8-yl)prop-2-yn-1-yl]-adenosine] | 23.8 µM | slightly reduced inhibitory potency | very similar to that of NKI1 | 
4 | NCCCN(CC#Cc1nc2c(N)ncnc2n1C1OC(CO)C(O)C1O)CC1OC(n2cnc3c(N)ncnc32)C(O)C1O (centres unmarked) [Compound 5, 5’-[N-3-Aminopropyl-N-(3-(adenosin-8-yl)propargyl)amino]-5’-deoxyadenosine] | 5.6 µM | slightly increased | very similar to that of NKI1 | 
5 | Nc1ncnc2c1ncn2C1OC(COCC#Cc2nc3c(N)ncnc3n2C2OC(CO)C(O)C2O)C(O)C1O (centres unmarked) [NKI1] | 17.2 µM |  |  | active in mice infected with S. aureus

From article PMC7660225, “New Chemical Probe Targeting Bacterial NAD Kinase” (Molecules, 2020)
